Results published in US9834755B2, “Compositions and methods for enhanced generation of hematopoietic stem/progenitor cells” (FRED HUTCHINSON CANCER RESEARCH CENTER, priority 2011, dated 2017).
Marks after values point to notes of the source that are not given here.

How the values were obtained:
[1] = tested on: CD34^+ CB HSPC; experiment: Ex vivo culture/expansion of CD34+ cord blood HSPC, cell counts and flow cytometric phenotype; format: cell-based, human; details: for CD34 expansion compared to IgG control: 7, 14, 18 and 21 days in culture, alone groups: data not shown
Description: (§1) Human cord blood samples for research were obtained from normal deliveries under Swedish Medical Center Institutional Review Board (Seattle) approval and after consent was obtained. The units were incubated in ammonium chloride red blood cell lysis buffer (consisting of 16.6 g NH4Cl, 2 g NaHCO3 and 74.4 mg EDTA per 2L of water) and resuspended in PBS with 2% human AB serum. Cells were incubated with CD34 Microbeads from Miltenyi Biotec and purified with an Automacs (Miltenyi Biotec). Cells were then frozen and thawed at time of use with PBS+1% FBS. Pools of 2 or more cord blood units were used for all experiments. Peripheral blood stem cells (PBSC) were obtained from a single donor and cryopreserved after CD34^+ cell selection.
Cells were cultured for 16 days in non-tissue-cultured-treated tissue culture flasks (25, 75, and 175-cm^2). Flasks were precoated with Delta1^ext-IgG (ligand preparation described in Delaney C. et al., 2005, Blood 106(8):2693-2699; and Varnum-Finney et al., 2000, J. Cell Science 113: 4313-4318), or human control IgG at 2.5 μg/ml and retronectin 5 μg/ml. Delta1^ext-IgG titrations were performed with concentrations of 0.5, 1.25 (for PBSC), 2.5, or 5 μg/ml. Flasks were incubated at 4° C. overnight or 37° C. for 2 hours and then washed with PBS and blocked with PBS 2% BSA for 30 minutes at 37° C. Cells were cultured in StemSpan serum-free expansion medium in the presence of 4 growth factors (IL6 (50 ng/ml), thrombopoietin (50 ng/ml), Flt-3 ligand (50 ng/ml), stem cell factor (50 ng/ml)) or 5 growth factors (4 growth factors plus IL3 (10 ng/ml)). SR-1 was made fresh and added to cells with all feedings at a concentration of 750 nM. Cultures in 25-cm^2 flasks were initiated with between 7×10^4 and 1.3×10^5 CD34^+ cells. Cultures in 75-cm^2 flasks were initiated with 3×10^5 CD34^+ cells. Cells were expanded to larger flasks when they exceeded cell density >1×10^6 cells/ml. Expansions typically occurred on day 7 and 10 of culture. Fresh media with cytokines was added very 3-4 days including the day prior to transplantation.
Immunofluorescence analysis was performed as described (see Ohishi et al., 2002, J Clin Invest. 110(8): 1165-1174), with FITC-labeled antibodies against human CD3, CD14, CD15, CD33, CD34, CD90, phycoerythryin (PE)-labeled antibodies against human CD19, CD56, CD90, CD133, Glycophorin A, CXCR4, PERCP-labeled antibodies against human CD14, CD34, APC-labeled antibodies against human CD45, CD90 and PECy7 labeled antibody against mouse CD45.1.
To determine whether Delta1^Ext-IgG and SR1 in combination were successfully able to expand CD34^+ CB HSPC ex vivo, CD34^+ cell generation, an HSPC enriched population routinely used in clinical application, was assessed at multiple time points in culture as compared to IgG control. CD34^+ CB progenitors were isolated by bead selection and Automacs and then cultured for 21 days in StemSpan serum-free expansion media supplemented with cytokines (TPO, SCF, IL-6, and Flt3-ligand at 50 ng/ml). […] Cells were cultured in the presence of SR1 (750 nM) and Delta1^Ext-IgG (0.5 or 2.5 μg/ml) or an IgG control. The engineered Notch ligand, Delta1^ext-IgG, contains the extracellular domain of Delta1 fused to the Fc portion of human IgG1 and is immobilized on the plastic surface of tissue culture flasks at varying densities. Immobilization of the Fc portion of human IgG1 served as a control construct. […] CD34^+ selected cells were seeded per flask from a pool of 2 CB units. […]

[2] = tested on: CD34^+ CB HSPC; experiment: In vivo repopulation: cultured progeny of CD34+ CB HSPC transplanted into sublethally irradiated NSG mice; design: species or system human; details: for human engraftment upon secondary transplantation, average CD45^+: differences not statistically significant
Description: Sublethally irradiated NOD-SCID IL-2Rγ-null mice (obtained from an established breeding colony at the Fred Hutchinson Cancer Research Center and approved for use by the Fred Hutchinson Cancer Research Center Institutional Animal Care and Use Committee) were infused with the progeny 10,000 starting CD34^+ cells per mouse via tail vein for cord blood experiments and the progeny of 20,000 for PBSC experiments. Repopulating ability of infused cells was assessed at 2-3 weeks post-transplant by bone marrow aspiration and at 13 weeks by bone marrow harvest.
Cells were cultured as described above and transplanted into sublethally irradiated immunodeficient NSG mice. Total human engraftment was defined as percent of human CD45^+ murine CD45.1^− cells based on bone marrow aspirate at 2 weeks post-transplant. Total myeloid engraftment was defined as percent human CD45^+CD33^+ murine CD45.1 cells on bone marrow aspirate at the same time point.
The progeny of 1×10^4 CD34^+ cells were then transplanted into 10 sublethally irradiated NSG mice per condition and engraftment was assessed by bone marrow aspirate at 2 weeks post-transplant. Total human engraftment was defined as percent of human CD45^+ murine CD45.1^− cells based on bone marrow aspirate at 2 weeks post-transplant. Total myeloid engraftment was defined as percent human CD45^+CD33^+ murine CD45.1^− cells on bone marrow aspirate at the same time point.
Transplants into NSG mice were performed as described above, with the cultured progeny of 1×10^4 CD34^+ cells. Cells were cultured in the presence of SR1, Delta1^Ext-IgG 2.5 μg/ml, or SR1 and Delta1^Ext-IgG (2.5 or 5 μg/ml) for 16 days.
Cells were cultured and transplanted as described above with the progeny of 1×10^4 CD34^+ cells transplanted per mouse. Total human, progenitor cell, myeloid, and lymphoid assessments were performed on bone marrow samples. Bone marrow aspirates were performed in the mice at 2 and 8 weeks post-transplant, and mice were sacrificed for bone marrow harvest at 13 weeks.

[3] = tested on: CD34^+ CB HSPC; experiment: SRC frequency by limiting dilution analysis in NSG mice; format: in vivo, human; details: Delta1^Ext-IgG 2.5 μg/ml alone, 5 μg/ml with SR1; for No. mice engrafted, Engraftment with ≧0.5% CD34^+ cells / No. mice engrafted, Engraftment with ≧1% CD33^+ cells / No. mice engrafted, Engraftment with ≧1% CD34^+ cells / No. mice engrafted, Engraftment with ≧5% CD33^+ cells: bone marrow aspirate at 2 weeks; for CD33^+ SRC frequency per starting cell, Engraftment with ≧1% CD33^+ cells / CD33^+ SRC frequency per starting cell, Engraftment with ≧5% CD33^+ cells / CD34^+ SRC frequency per starting cell, Engraftment with ≧0.5% CD34^+ cells / CD34^+ SRC frequency per starting cell, Engraftment with ≧1% CD34^+ cells: limiting dilution analysis, maximum likelihood
Description: Human cord blood (CB) samples for research were obtained from normal deliveries under Swedish Medical Center Institutional Review Board (Seattle) approval and after consent was obtained. CB samples were red blood cell depleted (Delaney et al., 2010, Nat Med 16(2):232-236), CD34 enriched using CD34^+ immunomagnetic particles (Miltenyi Biotec), purified with Automacs (Miltenyi Biotec), and cryopreserved. […] Cultures were initiated with 7×10^4 to 1.3×10^5 CD34^+ cells for 25-cm^2 flasks and with 3×10^5 CD34^+ cells for 75-cm^2 flasks. Immunofluorescence analysis was performed as described (Ohishi et al., 2002, J Clin Invest. 110(8):1165-1174) with labeled antibodies: FITC (human CD14, CD33, and Lineage); PE (human CD7, CD14, CD15, CD19, CD90, and CD123); PERCP (human CD34); APC (human CD10, CD45, IL3Ra); PECy7 (mouse CD45.1, human CD34); Alexa Fluor 700 (CD38); APC-eFluor 780 (CD45RA). Transplants were performed in sublethally irradiated (275 rad) NOD-SCID IL-2Rγ-null mice (NSG). In vivo engraftment was assessed by immunofluorescence analysis of human cell subsets (human CD45^+ murine CD45.1). On average, the total number of cells infused was 4.25×10^6/mouse for Delta1^ext-IgG alone, 1.88×10^7/mouse for SR1 alone, and 4.76×10^6/mouse for the combination. Statistical analyses were performed as indicated. For limiting dilution analysis, mice were injected with the cultured progeny of the number of CD34^+ cells indicated and bone marrow aspirates performed at 2 weeks. Two engraftment cut-offs were chosen based on percent engraftment observed in non-limiting transplantation studies. The frequency of SRCs was determined by the method of maximum likelihood with L-CALC software (StemCell Technologies) from the proportions of engrafted recipients (A, B).

[4] = tested on: mobilized peripheral blood stem cells (mPBSC); experiment: Ex vivo culture of mobilized peripheral blood stem cells; format: cell-based, human; details: mPBSC cultured 16 days
Description: as §1
Cells were cultured for 16 days in non-tissue-cultured-treated tissue culture flasks (25, 75, and 175-cm^2). Flasks were precoated with Delta1^ext-IgG (ligand preparation described in Delaney C. et al., 2005, Blood 106(8):2693-2699; and Varnum-Finney et al., 2000, J. Cell Science 113: 4313-4318), or human control IgG at 2.5 μg/ml and retronectin 5 μg/ml. Delta1^ext-IgG titrations were performed with concentrations of 0.5, 1.25 (for PBSC), 2.5, or 5 μg/ml. Flasks were incubated at 4° C. overnight or 37° C. for 2 hours and then washed with PBS and blocked with PBS 2% BSA for 30 minutes at 37° C. […]

[5] = tested on: CD34^+ cord blood HSPC; details: culturing HSPC with SR1; cited from earlier work
[6] = tested on: HSPC; details: culturing HSPC with SR1; cited from earlier work
[7] = patients, vs concurrent cohort receiving double cord blood transplantation of non-manipulated units; cited from earlier work

Molecule	CD34 expansion compared to IgG control [1]	human engraftment upon secondary transplantation, average CD45^+ [2] [%]	No. mice engrafted, Engraftment with ≧0.5% CD34^+ cells ([3]; 1000 CD34^+ cells/mouse)	No. mice engrafted, Engraftment with ≧1% CD33^+ cells ([3]; 1000 CD34^+ cells/mouse)	No. mice engrafted, Engraftment with ≧1% CD34^+ cells ([3]; 1000 CD34^+ cells/mouse)	No. mice engrafted, Engraftment with ≧5% CD33^+ cells ([3]; 1000 CD34^+ cells/mouse)	No. mice engrafted, Engraftment with ≧0.5% CD34^+ cells ([3]; 4000 CD34^+ cells/mouse)	No. mice engrafted, Engraftment with ≧1% CD33^+ cells ([3]; 4000 CD34^+ cells/mouse)	No. mice engrafted, Engraftment with ≧1% CD34^+ cells ([3]; 4000 CD34^+ cells/mouse)	No. mice engrafted, Engraftment with ≧5% CD33^+ cells ([3]; 4000 CD34^+ cells/mouse)	No. mice engrafted, Engraftment with ≧0.5% CD34^+ cells ([3]; 20000 CD34^+ cells/mouse)	No. mice engrafted, Engraftment with ≧1% CD33^+ cells ([3]; 20000 CD34^+ cells/mouse)	No. mice engrafted, Engraftment with ≧1% CD34^+ cells ([3]; 20000 CD34^+ cells/mouse)	No. mice engrafted, Engraftment with ≧5% CD33^+ cells ([3]; 20000 CD34^+ cells/mouse)	CD33^+ SRC frequency per starting cell, Engraftment with ≧1% CD33^+ cells [3]	CD33^+ SRC frequency per starting cell, Engraftment with ≧5% CD33^+ cells [3]	CD34^+ SRC frequency per starting cell, Engraftment with ≧0.5% CD34^+ cells [3]	CD34^+ SRC frequency per starting cell, Engraftment with ≧1% CD34^+ cells [3]	other results
CC(C)n1cnc2c(NCCc3ccc(O)cc3)nc(-c3csc4ccccc34)nc21 [SR1, 4-(2-(2-(benzo[b]thiophen-3-yl)-9-isopropyl-9H-purin-6-ylamino)ethyl)phenol]	enhanced CD34 expansion	0.11	1/9	3/9	1/9	1/9	2/9	5/9	1/9	1/9	7/7	7/7	6/7	7/7	1/3868**	1/10063^##	1/8495**	1/13514^##	total nucleated cell (TNC) expansion over IgG control and all Delta1^Ext-IgG conditions ([1]; 7-16 days in culture): enhanced; ex vivo generation of total nucleated cells (TNC) compared to Delta1^Ext-IgG (2.5 μg/ml) or SR1 and Delta1^Ext-IgG (5 μg/ml) combined ([1]; SR1 750 nM, 14 days, p<0.001, p=0.04): significantly enhanced; rapid repopulation by B-lymphoid cells (percent CD45^+CD33^-CD19^+) in comparison with Delta1^Ext-IgG alone or the combination ([2]; early time point (2 weeks)): significantly enhanced; TNC and CD34^+ cell expansion in vitro [4]: greatest TNC and CD34^+ cell expansion; increase in CD34^+ cells [5]: 50 fold; increase in the number of cells with the ability to repopulate immunodeficient mice [6]: 17 fold
Delta1^Ext-IgG: engineered Notch ligand: extracellular domain of Delta1 fused to the Fc portion of human IgG1, immobilized on tissue culture flasks (protein, left off: a dimerising Fc or GST, engineered Notch ligand: extracellular domain of Delta1 fused to the Fc portion of human IgG1, immobilized on tissue culture flasks) QVWSSGVFELKLQEFVNKKGLLGNRNCCRGGAGPPPCACRTFFRVCLKHYQASVSPEPPCTYGSAVTPVLGVDSFSLPDGGGADSAFSNPIRFPFGFTWPGTFSLIIEALHTDSPDDLATENPERLISRLATQRHLTVGEEWSQDLHSSGRTDLKYSYRFVCDEHYYGEGCSVFCRPRDDAFGHFTCGERGEKVCNPGWKGPYCTEPICLPGCDEQHGFCDKPGECKCRVGWQGRYCDECIRYPGCLHGTCQQPWQCNCQEGWGGLFCNQDLNYCTHHKPCKNGATCTNTGQGSYTCSCRPGYTGATCELGIDECDPSPCKNGGSCTDLENSYSCTCPPGFYGKICELSAMTCADGPCFNGGRCSDSPDGGYSCRCPVGYSGFNCEKKIDYCSSSPCSNGAKCVDLGDAYLCRCQAGFSGRHCDDNVDDCASSPCANGGTCRDGVNDFSCTCPPGYTGRNCSAPVSRCEHAPCHNGATCHERGHRYVCECARGYGGPNCQFLLPELPPGPAVVDLTEKLEGQGGPFPW	enhanced CD34 expansion	0.22	0/9	2/9	0/9	0/9	1/9	9/9	0/9	3/9	7/7	7/7	6/7	6/7	1/1719*	1/11314^#	1/11739*	1/19121^#	TNC generation with increasing densities of Delta1^Ext-IgG ([1]; day 16, SR1 with Delta1^Ext-IgG 0, 0.5, 2.5 or 5 μg/ml): decreased TNC generation in a stepwise manner; reduction in time to neutrophil engraftment [7]: 50%
